The text below walks through data of patent US20240197928A1, “SODIUM-DEPENDENT GLUCOSE TRANSPORTER 2 AS A DIAGNOSTIC AND THERAPEUTIC TARGET FOR PRE-MALIGNANT LESIONS” (THE REGENTS OF THE UNIVERSITY OF CALIFORNIA, priority 2019, published 2024).

Experiment [1] deals with SGLT2 (Homo sapiens, UniProt P31639). The settings on record: reference 39; cited from earlier work.
The test system of experiment [2] is lung tumors in KPluc mice. Nature of the experiment: Therapeutic trials in the KPluc genetically engineered mouse model of LADC. The conditions noted are these: vs placebo.
For experiment [3], the system named is patient-derived xenografts of human LADC. Description: Therapeutic trial in patient-derived xenografts of human LADC. The class given is in vivo, NSG mice. From the text:
Patient-derived xenografts. The tumor samples were obtained from surgically resected specimens after informed consent under the UCLA Lung SPORE (PDX #004 and #011) or the Long Beach Memorial Hospital Institutional Review Board protocol (PDX #013). One of the PDXs (#186) was purchased from the Jackson laboratories. PDXs were established and passaged in NSG mice. NSG mice were procured from the UCLA Radiation Oncology breeding colony. For each mouse, two small pieces of tumor tissue (4 mm^3) were implanted subcutaneously in the flank regions.
Patient-derived xenografts. The mice were randomized in two therapeutic groups (same as for the trials in GEMMs): placebo and canagliflozin (30 mg/kg per day) The number of mice per group was four for PDX #011, eight for PDX #013, three for PDX #004, and five for PDX #186; each mouse was inoculated with two tumors (one tumor on each flank). Some of the tumors of PDX #011 developed soft tissue metastases in the axillary regions, and these were counted as separate tumors. Overall, 38 tumors were included in the placebo and 39 tumors in the canagliflozin group. […] The tumor volumes at 2 weeks were counted as final tumor volumes.
Mice were imaged by Me4FDG and FDG PET/CT before treatment and 2 weeks after starting treatment. […] The mice were sacrificed, and the tumors were analyzed after 1 month of treatment. […]
In general terms: Xenograft models place foreign cells or tissue in a host animal.

Experiment [4] has the same test system. Description: Me4FDG and FDG microPET in PDXs before and 2 weeks after the beginning of treatment. Type of experiment: in vivo, NSG mice. The conditions noted are these: canagliflozin 30 mg/kg per day.
Protocol: For the microPET in PDXs, a subset of the mice (PDXs #004, #013, and #186) received both Me4FDG and FDG PET scans the day before and 2 weeks after the beginning of treatment to evaluate the response of glucose transporter activity to the treatment.
The animals were anesthetized with 1.5% (v/v) isoflurane in oxygen, were given a dose of 100 μCi of Me4FDG or FDG via tail vein injection, and were maintained under anesthesia for 1 hour of unconscious uptake. The mice were then immobilized on the imaging bed and received a 10-min static PET scan followed by a CT scan. Each mouse received two different PET scans with the two tracers (Me4FDG and FDG) on consecutive days to allow for tracer decay. The equipments used were Focus 220 microPET scanner (Concorde Microsystems) and Inveon microPET scanner (Siemens) for the microPET scans and CrumpCAT (UCLA Crump Institute) for the microCT.
The PET data were analyzed with AMIDE software version 1.0.4 (amide.sourceforge.net/) (55). […] The percentage of injected dose for each ROI was calculated by dividing the measured activity in the ROI by the total injected dose, as measured from the PET image by designing an ROI encompassing the whole mouse. […] Briefly, we evaluated the background signal for each mouse by designing a ROI corresponding to the normal lung. We then calculated the CNR for each nodule by using the following formula (31)

On to `Cc1ccc([C@@H]2O[C@H](CO)[C@@H](O)[C@H](O)[C@H]2O)cc1Cc1ccc(-c2ccc(F)cc2)s1` [canagliflozin], for which, in experiment [1], the “effectiveness as SGLT2 inhibitor compared with dapagliflozin” value is listed as “more effective SGLT2 inhibitor than dapagliflozin”. Also, the “Tumor burden estimated by bioluminescence imaging (BLI)” value in experiment [2] (30 mg/kg per day oral gavage from 2 weeks after tumor induction, P<0.001) is “significantly lower”. The “onset of tumors (BLI signal up to week 8)” value in experiment [2] (30 mg/kg per day oral gavage, P<0.001) is “significantly delayed”. For the same compound, the “tumor burden by histological analysis of the lungs and measurement of tumor area” value in experiment [2] (at 8 weeks and in the survival cohort, P<0.05) was “significantly lower tumor burden”. For the same compound, the mouse survival entry in experiment [2] (treated until death, n=15 per group, P=0.0003) is reported as “significantly prolonged”. The “Ki67 proliferation rate in solid LADCs” value in experiment [2] is on record as “not in solid LADCs”. Further, the “Ki67 proliferation rate in premalignant lesions” value in experiment [2] (P=0.001) is “significantly lower”. The “final tumor volumes lower than the control mice” value in experiment [3] (30 mg/kg per day oral gavage for 1 month, four PDXs, P=0.003) is reported as “about 47%”. In addition, the “geometric mean ratio of final tumor volumes, treated vs control” value in experiment [3] (95% confidence interval 0.36 to 0.80, P=0.003, adjusted for trial and mouse random effects) was 0.53. Further, the “FDG signal from day 0 to day 14” value in experiment [4] is on record as “did not significantly change”. The “Me4FDG uptake from day 0 to day 14” value in experiment [4] (P<0.001) was “significantly reduced”.
